Values quoted from earlier work, collected in patent publication US20090142809A1, “Method for Cleaving Cervimycin Monoesters” (LEIBNIZ-INSTITUT FÜR NATURSTOFF-FORSCHUNG UND INFE, priority 2005, published 2009).

Key:
[1] = system: multiresistant staphylococci; conditions: statement in words in the background section
[2] = system: vancomycin-resistant Enterococcus faecalis; conditions: statement in words in the background section

In the case of COC1=CC(=O)c2c(cc3c(c2O)C(=O)[C@@]2(O[C@H]4CC[C@H](O[C@H]5CC[C@H](O)[C@@H](C)O5)[C@@H](C)O4)C(O)=C(C(N)=O)C(=O)[C@H](O[C@H]4CC[C@H](O[C@H]5CC[C@H](O[C@H]6CC[C@H](O[C@H]7CC[C@H](O)[C@H](C)O7)[C@H](C)O6)[C@H](C)O5)[C@@H](C)O4)[C@H]2C3)C1=O [cervimycin K], the “activity against multiresistant staphylococci” value [1] is given as “extremely strong activity” and the “activity against the vancomycin-resistant Enterococcus faecalis” value [2] is given as “extremely strong activity”.
